# Results reported in ChEMBL document CHEMBL1201862, “PubChem BioAssay data set” (2004).
# Activity calls are given as the source filed them.
# What was measured:
# [1] = biological target: T1, Neuropeptide Y receptor type 1 (Homo sapiens, UniProt P25929); format: functional;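 note: HEK293 cells with a CNG channel challenged with NPY then isoproterenol; potency as antagonist that reverses NPY suppression of cAMP signal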
# T1 sequence (P25929 whole entry): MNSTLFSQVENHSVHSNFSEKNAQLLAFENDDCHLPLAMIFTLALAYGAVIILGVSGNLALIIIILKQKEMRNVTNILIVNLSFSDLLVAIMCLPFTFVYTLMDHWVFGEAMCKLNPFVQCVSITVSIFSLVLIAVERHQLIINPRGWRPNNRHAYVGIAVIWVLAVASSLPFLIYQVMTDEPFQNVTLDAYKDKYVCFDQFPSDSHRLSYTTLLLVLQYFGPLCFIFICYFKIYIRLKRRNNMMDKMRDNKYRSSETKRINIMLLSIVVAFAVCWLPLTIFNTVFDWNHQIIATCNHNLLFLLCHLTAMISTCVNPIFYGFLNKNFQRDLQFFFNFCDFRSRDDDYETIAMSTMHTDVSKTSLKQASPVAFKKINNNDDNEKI
# [2] = biological target: T2, Neuropeptide Y receptor type 2 (Homo sapiens, UniProt P49146); format: functional, cell-based;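 note: HEK293 cells expressing the receptor and a CNG channel; stimulus was NPY near EC95 followed by isoproterenol to raise cAMP; antagonist potency measured as restoring cAMP signal that NPY suppresses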
# T2 sequence (P49146 whole entry): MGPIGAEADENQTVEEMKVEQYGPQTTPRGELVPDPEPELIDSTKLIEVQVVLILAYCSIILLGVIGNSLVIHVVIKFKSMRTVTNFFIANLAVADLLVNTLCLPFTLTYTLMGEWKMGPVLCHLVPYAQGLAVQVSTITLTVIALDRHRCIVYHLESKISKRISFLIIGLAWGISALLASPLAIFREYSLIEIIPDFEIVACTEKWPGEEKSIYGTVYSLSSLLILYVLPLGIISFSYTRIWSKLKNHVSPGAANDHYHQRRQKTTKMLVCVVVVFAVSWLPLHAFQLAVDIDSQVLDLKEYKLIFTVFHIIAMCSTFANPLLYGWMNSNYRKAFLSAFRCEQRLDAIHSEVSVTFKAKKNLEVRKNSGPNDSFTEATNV
# [3] = biological target: Peroxisome proliferator-activated receptor gamma/Nuclear receptor coactivator 2 (Homo sapiens, UniProt P37231); format: functional;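 note: agonist potency for raising coactivator recruitment to the receptor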
# [4] = biological target: Peroxisome proliferator-activated receptor gamma/Nuclear receptor coactivator 1 (Homo sapiens, UniProt P37231); format: functional;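 note: agonist potency as compounds enhance coactivator SRC-1 recruitment to PPARgamma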
# [5] = biological target: Peroxisome proliferator-activated receptor gamma/Nuclear receptor coactivator 3 (Homo sapiens, UniProt P37231); format: functional;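 note: agonist potency for raising coactivator recruitment to the receptor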
# [6] = biological target: 5-hydroxytryptamine receptor 1E (Homo sapiens, UniProt P28566); assay: Counterscreen assay for S1P3 antagonists: Dose response cell-based high throughput screening assay to identify antagonists of the 5-Hydroxytryptamine Receptor Subtype 1E (5HT1E). [Related pubchem assays: 1429, 485 ]; format: functional
# [7] = Trypanosoma cruzi growth suppression in host cells – NIH3T3 host cells, beta-gal luminescence, confirmation (AID 2044); format: functional, cell-based;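 note: intracellular parasites grown in NIH/3T3 mouse fibroblasts as host cells; luminescent beta-galactosidase reporter signal from transgenic T. cruzi replicating inside host cells; inhibitors lower the luminescence signal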
# [8] = NIH3T3 cell viability loss – ATP luminescence, mouse fibroblasts, counter-screen, dose response (AID 2010); format: functional, cell-based;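 note: cells exposed to compound for about 90 hours before reading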
# [9] = biological target: Sphingosine 1-phosphate receptor 3 (Homo sapiens, UniProt Q99500); assay: Dose response cell-based high throughput screening assay for antagonists of the Sphingosine 1-Phosphate Receptor 3 (S1P3). [Related pubchem assays: 1429, 485 ]; format: functional
# [10] = reduction of Shn3 3'UTR-driven luciferase in osteoblasts – cell-based, Clone20 osteoblasts, firefly luciferase, cherry-picked, dose response (AID 624132); format: functional;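 note: firefly luciferase luminescence from reporter carrying the Shn3 3'UTR in osteoblasts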
# [11] = loss of viability in HepG2 cells – cell-based, CellTiter-Glo, cherry-picked, cytotoxicity control for Shn3 inhibitor project, dose response (AID 624134); format: functional
# [12] = non-specific 3'UTR reporter inhibition in Clone20-Shn3RL – cell-based, Renilla luciferase, cherry-picked, counter-screen for Shn3 inhibitor project, dose response (AID 624133); format: functional
# [13] = cells; format: functional, cell-based
# [14] = biological target: T3, Bcl-2-like protein 10 (Homo sapiens, UniProt Q9HD36); assay: Concentration-response of Bcl-B inhibitors by biochemical FP with TR3 (AID 1243); format: functional
# T3 sequence (Q9HD36 whole entry): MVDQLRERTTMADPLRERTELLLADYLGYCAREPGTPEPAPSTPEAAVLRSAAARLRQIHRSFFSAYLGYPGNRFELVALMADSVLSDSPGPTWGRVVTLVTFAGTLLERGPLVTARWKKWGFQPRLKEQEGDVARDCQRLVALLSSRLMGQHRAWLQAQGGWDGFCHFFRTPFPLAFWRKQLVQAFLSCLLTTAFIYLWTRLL
# [15] = cells; format: functional, cell-based; remark: listed apart in the source
# [16] = system: Vero; assay: viability of Vero cells under compound – cytotoxicity control for flavivirus capping enzyme inhibitors (AID 588742); format: functional; details: Chlorocebus sabaeus
# [17] = biological target: Protein Tat (Human immunodeficiency virus type 1 group M subtype B (isolate HXB2)(HIV-1), UniProt P04608); format: functional;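 note: tat binding to TAR RNA read out by fluorescence polarization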
# [18] = viability loss in THP-1 monocytes – THP-1 cells, cytotoxicity control for Vif-APOBEC3G degradation inhibitor project, dose response (AID 1117359); format: functional; details: THP-1
# [19] = HIV-1 Vif–A3G interaction blockers – biochemical, TR-FRET, GST-Vif 1-94, biotin-A3G peptide, dose response retest, primary screen (AID 1117319); format: functional;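 note: TR-FRET signal of purified GST-Vif binding a biotinylated A3G peptide; inhibitors lower the FRET signal by blocking Vif and A3G binding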
# [20] = decrease of insulin promoter-GFP reporter – imaging, high-content screening, mouse beta cells (AID 1628); format: functional; details: MIN6
# [21] = biological target: T2, Neuropeptide Y receptor type 2; assay: IC50 for human NPY-Y2 blockade – cell-based, counter-screen for NPY-Y1 antagonist project, dose response (AID 1278); format: functional
# [22] = MIN6 cell viability loss – mouse insulinoma, cytotoxicity control, dose response (AID 2122); format: functional;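 note: confirmatory high-throughput counterscreen run to flag cytotoxic compounds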
# [23] = biological target: T1, Neuropeptide Y receptor type 1; assay: IC50 of human NPY-Y1 blockers – cell-based, dose response (AID 1277); format: functional
# [24] = system: INS1; assay: INS-1E survival protection against cytokine death – cell-based, luminescence, retest, dose response (AID 449756); format: functional;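 note: cell death triggered by IL-1 beta plus TNF-alpha plus IFN-gamma mixture; protective hits raise ATP signal compared with cytokine alone wells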
# [25] = biological target: Protein Wnt-3a (Mus musculus, UniProt P27467); assay: antagonism of Wnt3a pathway luciferase reporter – Wnt-LIGHT cells, luminescence, selectivity assay for Gli-SUFU antagonist project, dose response (AID 651570); format: functional; details: read-out: IC50_Mean;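 note: Wnt-LIGHT reporter cells stimulated with conditioned medium from Wnt3a-producing cells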
# [26] = biological target: T4, Galanin receptor type 3 (Homo sapiens, UniProt O60755); assay: Fluorescence-based cell-based primary high throughput dose response assay to identify antagonists of the Galanin Receptor 3 (GalR3).; format: functional
# T4 sequence (O60755 whole entry): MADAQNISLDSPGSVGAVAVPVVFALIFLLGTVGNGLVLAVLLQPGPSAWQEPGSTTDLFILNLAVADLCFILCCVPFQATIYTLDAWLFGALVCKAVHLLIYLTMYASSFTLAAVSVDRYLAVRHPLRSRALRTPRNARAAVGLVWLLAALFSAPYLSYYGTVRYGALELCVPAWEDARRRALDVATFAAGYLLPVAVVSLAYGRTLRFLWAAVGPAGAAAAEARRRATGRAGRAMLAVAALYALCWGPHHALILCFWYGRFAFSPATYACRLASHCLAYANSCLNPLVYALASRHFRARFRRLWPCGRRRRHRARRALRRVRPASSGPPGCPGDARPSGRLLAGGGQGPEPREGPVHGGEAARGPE
# [27] = cells; format: functional, cell-based; details: HEK-CNG
# [28] = biological target: T5, COUP transcription factor 2 (Homo sapiens, UniProt P24468); assay: Luminescence-based cell-based high throughput dose response assay to identify inhibitors of COUP-TFII (NR2F2).; format: functional;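 note: HEK293 cells transiently cotransfected with COUP-TFII expression vector and reporter; luciferase reporter luminescence driven by COUP-TFII from the pX2-168 reporter plasmid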
# T5 sequence (P24468 whole entry): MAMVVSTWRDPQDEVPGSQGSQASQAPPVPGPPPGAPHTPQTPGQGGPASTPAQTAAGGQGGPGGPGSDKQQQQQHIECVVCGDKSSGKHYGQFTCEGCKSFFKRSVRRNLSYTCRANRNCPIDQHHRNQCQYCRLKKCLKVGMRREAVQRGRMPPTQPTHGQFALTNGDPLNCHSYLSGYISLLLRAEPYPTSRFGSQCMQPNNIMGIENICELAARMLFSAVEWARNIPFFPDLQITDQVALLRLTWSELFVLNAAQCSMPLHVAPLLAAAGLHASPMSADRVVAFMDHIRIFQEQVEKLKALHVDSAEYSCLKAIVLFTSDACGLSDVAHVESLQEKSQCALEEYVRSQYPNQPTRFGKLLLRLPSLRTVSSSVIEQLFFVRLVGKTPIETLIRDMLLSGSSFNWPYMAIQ
# [29] = biological target: Luciferin 4-monooxygenase (Photinus pyralis, UniProt P08659); assay: Counter Screen for Luciferase-based Assay Positives. [Related pubchem assays: 620, 618, 411 ]
# [30] = Luminescence-based counterscreen assay for KLF5 inhibitors: dose response cell-based high throughput screening assay to identify cytotoxic compounds using the IEC-6 intestinal epithelial cell line. [Related pubchem assays: 1700 (Primary screen.), 1834 (Confirmation screen.), 1858 (Summary AID.), 1905 (Counterscreen.)]; format: functional
# [31] = system: HT-1080; assay: HT1080 cell viability loss – fluorescence readout (AID 620); format: functional, cell-based; details: Homo sapiens
# [32] = biological target: Ion channel NompC (Danio rerio, UniProt Q7T1G6); assay: Dose response cell-based high-throughput screening assay for agonists of the transient receptor potential channel N1 (TRPN1). [Related pubchem assays (depositor defined):AID1424, AID1448]; format: functional
# [33] = biological target: T6, Mucolipin-3 (Homo sapiens, UniProt Q8TDD5); assay: Fluorescence counterscreen assay for […] agonists: dose response cell-based high-throughput screening assay to identify agonists of the transient receptor potential channel ML3 (TRPML3). [Related pubchem assays: 1424, 1448 ]; format: functional
# T6 sequence (Q8TDD5 whole entry): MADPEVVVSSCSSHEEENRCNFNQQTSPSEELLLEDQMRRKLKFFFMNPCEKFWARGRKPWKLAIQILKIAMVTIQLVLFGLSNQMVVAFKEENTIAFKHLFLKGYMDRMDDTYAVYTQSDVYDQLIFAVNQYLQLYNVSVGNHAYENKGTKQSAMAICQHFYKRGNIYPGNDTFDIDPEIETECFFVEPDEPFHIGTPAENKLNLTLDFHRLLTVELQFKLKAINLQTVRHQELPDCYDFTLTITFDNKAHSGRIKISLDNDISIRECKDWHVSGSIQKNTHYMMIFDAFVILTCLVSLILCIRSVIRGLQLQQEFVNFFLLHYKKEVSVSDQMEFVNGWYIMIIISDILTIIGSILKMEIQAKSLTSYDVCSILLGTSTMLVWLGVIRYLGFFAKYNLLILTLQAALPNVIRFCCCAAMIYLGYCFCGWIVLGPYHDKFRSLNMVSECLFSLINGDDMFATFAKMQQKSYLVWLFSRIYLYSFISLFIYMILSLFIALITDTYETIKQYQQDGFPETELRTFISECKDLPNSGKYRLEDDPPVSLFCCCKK
# [34] = mitochondrial function rescue without frataxin homolog – Friedreich's ataxia, plus single-dose screen, dose response (AID 1465); format: functional;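 note: yeast depleted of Yfh1p frataxin homolog grown on glycerol needing respiration; WST-1 tetrazolium dye reduction as measure of cellular dehydrogenase metabolic activity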
# [35] = biological target: Troponin, cardiac muscle (Homo sapiens, UniProt P19429+P45379+P63316); assay: Fluorescence-based biochemical high throughput dose response assay for activators of the calcium sensitivity of cardiac Regulated Thin Filaments (RTF). [Related pubchem assays (depositor defined):AID493008, AID493018, AID504382, AID504383]; format: protein-complex assay
# Luciferin 4-monooxygenase, sequence (P08659 whole entry): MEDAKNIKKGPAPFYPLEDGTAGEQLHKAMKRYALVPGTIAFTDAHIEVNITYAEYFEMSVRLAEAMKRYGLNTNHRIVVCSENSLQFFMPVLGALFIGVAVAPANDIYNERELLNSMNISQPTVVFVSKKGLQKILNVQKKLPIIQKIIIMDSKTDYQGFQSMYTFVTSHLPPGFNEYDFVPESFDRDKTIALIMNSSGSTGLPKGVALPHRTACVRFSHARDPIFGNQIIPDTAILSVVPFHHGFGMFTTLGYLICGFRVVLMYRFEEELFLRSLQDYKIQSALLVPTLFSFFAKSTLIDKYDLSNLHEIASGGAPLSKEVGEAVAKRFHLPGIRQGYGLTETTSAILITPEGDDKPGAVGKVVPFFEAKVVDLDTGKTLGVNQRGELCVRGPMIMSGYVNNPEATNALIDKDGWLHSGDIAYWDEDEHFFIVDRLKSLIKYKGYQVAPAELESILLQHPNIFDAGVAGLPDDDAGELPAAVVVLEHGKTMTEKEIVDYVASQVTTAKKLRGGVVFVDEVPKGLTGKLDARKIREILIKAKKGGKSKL
# Protein Wnt-3a, sequence (P27467 whole entry): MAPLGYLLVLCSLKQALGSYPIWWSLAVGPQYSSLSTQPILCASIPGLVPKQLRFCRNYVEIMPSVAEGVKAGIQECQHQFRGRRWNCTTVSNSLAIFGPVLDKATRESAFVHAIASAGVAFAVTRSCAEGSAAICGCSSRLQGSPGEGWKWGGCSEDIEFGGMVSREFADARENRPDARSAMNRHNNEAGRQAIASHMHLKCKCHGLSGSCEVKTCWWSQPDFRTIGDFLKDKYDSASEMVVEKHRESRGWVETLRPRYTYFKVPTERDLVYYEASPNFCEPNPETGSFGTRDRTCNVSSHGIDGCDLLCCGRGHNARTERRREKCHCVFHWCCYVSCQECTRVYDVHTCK
# Peroxisome proliferator-activated receptor gamma/Nuclear receptor coactivator 3, sequence (P37231 whole entry): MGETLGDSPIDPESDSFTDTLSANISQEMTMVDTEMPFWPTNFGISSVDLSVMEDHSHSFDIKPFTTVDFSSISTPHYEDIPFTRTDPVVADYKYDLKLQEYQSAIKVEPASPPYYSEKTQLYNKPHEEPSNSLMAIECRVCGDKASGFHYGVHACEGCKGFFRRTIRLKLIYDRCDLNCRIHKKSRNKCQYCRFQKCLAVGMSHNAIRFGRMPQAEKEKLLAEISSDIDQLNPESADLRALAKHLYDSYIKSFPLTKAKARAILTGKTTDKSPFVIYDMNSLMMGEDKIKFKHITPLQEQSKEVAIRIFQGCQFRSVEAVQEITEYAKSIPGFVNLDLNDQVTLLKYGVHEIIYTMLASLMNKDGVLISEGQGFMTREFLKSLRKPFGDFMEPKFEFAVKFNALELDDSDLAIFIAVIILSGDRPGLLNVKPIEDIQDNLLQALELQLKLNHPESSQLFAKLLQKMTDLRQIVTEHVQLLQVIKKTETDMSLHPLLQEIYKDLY
# Peroxisome proliferator-activated receptor gamma/Nuclear receptor coactivator 3, sequence (Q9Y6Q9 whole entry, further chain): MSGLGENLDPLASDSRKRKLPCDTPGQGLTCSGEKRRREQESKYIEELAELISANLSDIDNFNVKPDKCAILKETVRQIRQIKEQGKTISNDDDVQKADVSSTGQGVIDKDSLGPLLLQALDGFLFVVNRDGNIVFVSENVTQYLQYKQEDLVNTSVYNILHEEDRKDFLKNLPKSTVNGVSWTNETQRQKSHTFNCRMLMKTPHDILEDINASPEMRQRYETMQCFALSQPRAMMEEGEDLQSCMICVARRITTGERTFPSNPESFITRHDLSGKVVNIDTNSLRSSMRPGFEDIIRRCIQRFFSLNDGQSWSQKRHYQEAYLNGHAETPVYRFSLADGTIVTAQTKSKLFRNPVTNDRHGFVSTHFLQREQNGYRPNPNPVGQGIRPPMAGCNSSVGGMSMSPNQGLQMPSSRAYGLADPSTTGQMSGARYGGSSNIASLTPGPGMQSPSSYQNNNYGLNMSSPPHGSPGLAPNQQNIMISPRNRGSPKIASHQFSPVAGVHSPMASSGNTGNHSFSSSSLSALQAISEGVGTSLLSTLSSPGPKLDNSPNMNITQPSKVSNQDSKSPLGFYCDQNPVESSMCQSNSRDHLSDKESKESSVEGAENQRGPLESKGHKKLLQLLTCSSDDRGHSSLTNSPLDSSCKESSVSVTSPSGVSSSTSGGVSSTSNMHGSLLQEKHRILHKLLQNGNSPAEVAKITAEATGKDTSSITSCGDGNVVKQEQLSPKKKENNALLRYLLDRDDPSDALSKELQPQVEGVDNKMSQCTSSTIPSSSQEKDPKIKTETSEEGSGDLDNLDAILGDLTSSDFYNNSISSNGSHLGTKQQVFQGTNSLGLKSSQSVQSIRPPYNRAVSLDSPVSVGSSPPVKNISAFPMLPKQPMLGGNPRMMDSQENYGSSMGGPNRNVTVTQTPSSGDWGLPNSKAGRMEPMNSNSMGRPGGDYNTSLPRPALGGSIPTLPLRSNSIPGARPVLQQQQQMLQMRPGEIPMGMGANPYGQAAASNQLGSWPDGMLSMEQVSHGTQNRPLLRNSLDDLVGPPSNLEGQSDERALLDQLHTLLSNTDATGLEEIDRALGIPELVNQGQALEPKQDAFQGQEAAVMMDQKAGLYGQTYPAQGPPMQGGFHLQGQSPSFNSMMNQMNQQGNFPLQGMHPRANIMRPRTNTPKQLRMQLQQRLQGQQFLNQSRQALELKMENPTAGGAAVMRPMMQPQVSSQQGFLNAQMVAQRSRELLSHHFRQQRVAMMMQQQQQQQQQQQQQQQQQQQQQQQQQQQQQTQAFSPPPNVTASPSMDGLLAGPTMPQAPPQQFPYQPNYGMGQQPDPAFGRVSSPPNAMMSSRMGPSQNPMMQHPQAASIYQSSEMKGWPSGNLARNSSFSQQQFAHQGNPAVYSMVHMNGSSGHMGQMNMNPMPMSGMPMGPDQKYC
# Peroxisome proliferator-activated receptor gamma/Nuclear receptor coactivator 2, sequence (P37231 whole entry): as the sequence (P37231 whole entry) above
# Peroxisome proliferator-activated receptor gamma/Nuclear receptor coactivator 2, sequence (Q15596 whole entry, further chain): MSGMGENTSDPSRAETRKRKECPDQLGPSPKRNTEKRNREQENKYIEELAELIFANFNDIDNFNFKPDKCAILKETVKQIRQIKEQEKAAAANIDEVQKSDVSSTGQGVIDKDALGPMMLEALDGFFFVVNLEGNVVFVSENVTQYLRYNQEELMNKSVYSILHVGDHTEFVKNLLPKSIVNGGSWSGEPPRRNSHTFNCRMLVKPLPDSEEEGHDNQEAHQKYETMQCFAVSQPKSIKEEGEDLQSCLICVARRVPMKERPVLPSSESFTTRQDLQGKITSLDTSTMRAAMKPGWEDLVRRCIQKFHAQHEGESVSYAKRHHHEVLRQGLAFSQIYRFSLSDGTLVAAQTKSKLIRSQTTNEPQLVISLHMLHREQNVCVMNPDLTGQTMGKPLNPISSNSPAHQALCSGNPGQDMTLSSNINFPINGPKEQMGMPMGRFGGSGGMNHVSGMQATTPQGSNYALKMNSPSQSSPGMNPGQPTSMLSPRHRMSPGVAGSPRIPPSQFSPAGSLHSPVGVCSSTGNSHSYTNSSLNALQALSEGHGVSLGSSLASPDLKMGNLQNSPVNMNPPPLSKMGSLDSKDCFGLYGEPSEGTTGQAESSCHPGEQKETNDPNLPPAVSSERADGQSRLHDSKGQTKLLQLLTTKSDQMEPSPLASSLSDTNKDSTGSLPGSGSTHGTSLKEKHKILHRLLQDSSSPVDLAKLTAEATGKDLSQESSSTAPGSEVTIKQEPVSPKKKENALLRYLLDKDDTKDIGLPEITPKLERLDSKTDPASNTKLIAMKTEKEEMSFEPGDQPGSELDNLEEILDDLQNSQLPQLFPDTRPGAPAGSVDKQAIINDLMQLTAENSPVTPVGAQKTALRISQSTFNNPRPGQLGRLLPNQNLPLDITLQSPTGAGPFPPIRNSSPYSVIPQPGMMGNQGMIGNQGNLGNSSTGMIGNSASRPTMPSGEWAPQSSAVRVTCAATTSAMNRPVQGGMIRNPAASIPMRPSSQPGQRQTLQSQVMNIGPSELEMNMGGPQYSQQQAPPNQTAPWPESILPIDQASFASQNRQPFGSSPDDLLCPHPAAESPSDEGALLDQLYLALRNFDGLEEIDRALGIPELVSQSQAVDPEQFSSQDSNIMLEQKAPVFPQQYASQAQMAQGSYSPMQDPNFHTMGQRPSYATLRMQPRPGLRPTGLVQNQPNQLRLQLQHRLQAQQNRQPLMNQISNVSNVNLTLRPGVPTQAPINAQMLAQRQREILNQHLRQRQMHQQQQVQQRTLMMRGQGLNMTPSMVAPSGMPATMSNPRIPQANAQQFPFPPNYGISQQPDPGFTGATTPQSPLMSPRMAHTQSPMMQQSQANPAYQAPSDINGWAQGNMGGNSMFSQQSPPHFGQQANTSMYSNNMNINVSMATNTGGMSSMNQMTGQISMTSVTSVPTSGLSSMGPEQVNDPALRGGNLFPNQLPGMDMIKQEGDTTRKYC
# Protein Tat, sequence (P04608 whole entry): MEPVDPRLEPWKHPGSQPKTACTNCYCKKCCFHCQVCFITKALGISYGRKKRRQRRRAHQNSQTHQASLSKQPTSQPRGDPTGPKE
compound,measurement,setting,value
COC(=O)c1cc(Cl)c(NC(=O)c2ccc(C(C)(C)C)cc2)cc1OC,IC50,[1],5.31 µM (active)
same,IC50,[2],4.32 µM (active)
CC(C)(C)c1ccc(OCc2ccc(C(=O)N3CCOCC3)o2)cc1,EC50,[3],> 79.4 µM (not active)
same,EC50,[4],> 79.4 µM (not active)
same,EC50,[5],> 79.4 µM (not active)
FC(F)(F)c1cccc(NC(S)=NC(c2ccccc2)c2ccccc2)c1,IC50,[6],> 50 µM (not active)
same,EC50,[7],2.22 µM (active)
same,EC50,[8],9.61 µM (active)
same,IC50,[9],3.29 µM (active)
same,AC50,[10],7.17 µM (active)
same,AC50,[11],21.2 µM (active)
same,AC50,[12],26.2 µM (active)
Oc1cccc(/C=N/c2c(-c3ccco3)nc3ccccn23)c1,EC50,[13],> 350 µM (not active)
same,EC50,[14],9.07 µM (active)
same,EC50,[15],66.5 µM (active)
same,CC50,[16],> 40 µM (active)
same,IC50,[17],53.3 µM (inconclusive)
same,CC50,[18],> 40 µM (active)
same,IC50,[19],> 66.8 µM (active)
COc1ccccc1-n1c(-c2ccccc2)c[n+]2c1CCc1ccccc1-2,IC50,[20],0.548 µM (active)
same,IC50,[21],11.6 µM (not active)
same,IC50,[22],0.266 µM (active)
same,IC50,[23],8.77 µM (active)
same,AC50,"[24]; Rattus norvegicus, INS1",2.31 µM (active)
same,AC50,[24]; ins1,3.62 µM (active)
same,IC50,[25],6.31 µM (active)
same,IC50,[26],> 1.11 µM (active)
same,EC50,[27],> 29.9 µM (inactive)
same,IC50,[28],6.73 µM (active)
O=C(Nc1nccs1)c1cc2c(s1)CCCCC2,EC50,[29],8.26 µM (active)
same,IC50,[30],33.2 µM (not active)
same,EC50,[31],> 50 µM (not active)
CN1CCS/C1=C/C=C1\SC(=S)N(CC(=O)O)C1=O,EC50,[32],5.92 µM (active)
same,EC50,[33],12.2 µM (not active)
same,EC50,[34],> 100 µM (active)
same,EC50,[35],0.87 µM (active)
